The values that follow are results of earlier work, collected in patent US11246867B2, “Pharmaceutical composition comprising pimobendan” (Ceva Sante Animale, priority 2015, dated 2022).

The conditions of this data set: pH 5.

Take `COc1ccc(-c2nc3ccc(C4=NNC(=O)CC4C)cc3[nH]2)cc1` (stereo not shown) [pimobendan, 4,5-dihydro-6-[2-(4-methoxyphenyl)-1H-benzimidazol-5-yl]-5-methyl-3(2H)-pyridazone]: the solubility in water result is “about 1 mg/liter”.
